Assay results from patent US20100068747A1, “Generic Assay for Monitoring Endocytosis” (Evotec Technologies GmbH, priority 2005, published 2010).
“Also recorded” adds a separate entry of the source.

Legend:
CHO/PAR-2 cells = test: Lectin labeling of live cells, CHO/PAR-2; assay type: cell-based; details: TRITC-lectin, 10 nM at maximum
Method: (§1) Lectin labeling of live cells was conducted as follows: Cells were seeded as described above. After 24 hours cells were washed once with PBS and incubated in the incubator for another 2 hours in the respective standard medium without serum supplement to deprive them of serum factor mediated stimuli. This step was termed starvation period. Subsequently, cells were washed gently with PBS and incubated with 37° C. tempered assay medium comprised of Hank's Balanced Salt Solution (HBSS) pH 7.4, containing 20 mM HEPES and 30 mM D-glucose. The plate was left at RT for 30 minutes to slowly level its temperature and, thus, avoid capturing of temperature drop induced membrane dynamics. This period was termed leveling period. Then, assay medium was withdrawn and wells refilled with TRITC-lectin solutions at RT to start cell labeling. Several lectin concentrations in the low nano-molar range were tested. Molar concentrations were calculated from the data provided by Vector Labs. The plate was placed on a rotating shaker at low revolutions for 10 minutes while incubating. The start of the lectin incubation is referred to as assay starting point with t=0 min. After the 10 min incubation period the cells were gently washed with PBS and wells refilled with assay buffer at RT. Instantly thereafter, fluorescence signals were monitored predominately using the epifluorescence microscope.
(§2) The following microscopy and image analysis techniques were employed. When utilizing the epifluorescence microscope magnifications were adjusted according to the purpose of observation, e.g. single cell vs. cell collective. Concerning the filters U-MNU was used for Hoechst, U-MSWB for GFP, and U-N41007 for TRITC detection. Hoechst images were taken at 50 ms exposure time, GFP images at 100 to 200 ms and TRITC images needed 500 to 1000 ms. Overlay images were assembled with AnalySIS and tuned in color intensity to obtain the desired color contrast. Images taken to compare two experimental conditions, e.g. control vs. stimulus, featured identical exposure parameters. If possible, well areas were chosen that reflect similar states of confluence. Utilizing the Opera confocal fluorescence imager, the instrument was calibrated running standard methods for skew cropping (spatial camera alignments) and camera intensity normalization.

U2OS/ETAR-GFP cells = test: Lectin labeling of fixed cells, U2OS/ETAR-GFP; assay type: cell-based, human; details: TRITC-lectin 10 nM and 20 nM
Method: Lectin labeling of fixed cells was conducted as follows: To detach confluent cells in order to prepare experiments for internalization studies, cells were always treated with EDTA solution instead of trypsin solution. For all seeding, washing, and labeling steps in 96-well plates a working volume of 100 μl per well was assessed. Cells were seeded out into a 96-well plate at different concentrations. U2OS/ETAR-GFP suspensions were adjusted to yield 2*10^4 cells/well, both of the CHO cell lines must be at 2.5*10^4 cells/well. Cells became confluent after 24 hours of incubation. In the following, they were washed with phosphate buffered saline (PBS) and fixed with 3% PFA for 20 minutes at RT. Then, cells were washed again with PBS and incubated in 10 nM and 20 nM solutions of each TRITC-lectin candidate in PBS, respectively. Again, cells were washed with PBS to remove excess lectin, and wells were refilled with PBS for analysis. For specificity controls, lectin solutions were incubated for 30 minutes prior to the application with an excess of the monosaccharide that represents the respective glyco-epitope.
as §2

CHO/ETAR cells = test: Lectin labeling of live cells, CHO/ETAR; assay type: cell-based; details: TRITC-lectin, 10 nM at maximum
Method: as §1, §2

[1] = test system: CHO/ETAR cell membrane protein; test: Lectin blotting of ETAR membrane sample; assay type: binding
Method: (§3) Membrane preparation was conducted as follows: Cells were cultured in five T175 flasks until confluency. Confluent cells were detached by applying 3 ml of EDTA solution onto the PBS washed cells. Following a 20-minute incubation at 37° C. and 5% CO2, cells were resuspended in 12 ml of starvation medium (standard medium without FCS), counted, and centrifuged in a Heraeus Megafuge 1.0R at 133 rcf for 4 minutes. All subsequent steps were carried out on ice and with ice cold solutions. After unification of all pellet fractions, hypotonic lysis buffer was added to the cells at a ratio of 1 ml per 5*10^7 cells. Additionally, protease inhibitor cocktail was added to 50 μl per 5*10^7 cells. Cells were homogenized with 30 strokes in a 5 ml potter on ice, centrifuged at 4° C. and 917 rcf for 10 minutes, and the supernatant was stored in an ultracentrifuge tube on ice. The pellet fraction was homogenized and centrifuged once again as described above. The supernatants of both procedures were unified and centrifuged at 4° C. and 100,000 rcf for 45 minutes in a Sorvall ultra-centrifuge. The supernatant of this centrifugation procedure was withdrawn and the pellet dissolved in 0.5 ml or 1.0 ml modified SDS PAGE loading buffer containing Tris-HCl, SDS, glycerol, but no β-mercapto-ethanol or dyes and stored in small aliquots of 50 μl at −20° C.
SDS-Page of membrane samples was conducted as follows: Discontinuous 12% polyacrylamide gels were prepared according to a standard protocol. Broad range marker and 25 μg membrane protein were mixed 1:1 with loading buffer and loaded five times onto a mini gel in alternating order. The gels were run at U=100 V for the first 20 minutes. Subsequently, voltage was increased to U=150 V. The run was aborted as soon as the pyronin G band reached the end of the gel. For coomassie staining, gels were put in coomassie staining solution on a shaker at low revolutions for 45 min. The staining solution was removed and the gel incubated with destaining solution for one to two hours, exchanging the solution several times until the desired contrast was obtained. […]

[2] = test system: CHO/PAR-2 cell membrane protein; test: Lectin blotting of PAR-2 membrane sample; assay type: binding
Method: as §3
SDS-Page of membrane samples was conducted as follows: Discontinuous 12% polyacrylamide gels were prepared according to a standard protocol. Broad range marker and 25 μg membrane protein were mixed 1:1 with loading buffer and loaded five times onto a mini gel in alternating order. The gels were run at U=100 V for the first 20 minutes. Subsequently, voltage was increased to U=150 V. The run was aborted as soon as the pyronin G band reached the end of the gel. For coomassie staining, gels were put in coomassie staining solution on a shaker at low revolutions for 45 min. The staining solution was removed and the gel incubated with destaining solution for one to two hours, exchanging the solution several times until the desired contrast was obtained.
Blotting of membrane samples was conducted as follows: For blotting, 3 mm packs of Whatman papers were extensively soaked in one of the diverging blotting buffers, AB I, AB II, and CB, and a pile was assembled in a semi-dry Trans-Blot 3D system from Bio-Rad as depicted in the sketch of FIG. 2. Hybond nitrocellulose membrane was submerged in AB II prior to assembly. To smooth out any air bubbles from the pile, a Pasteur pipette was rolled several times over the top layer. The apparatus was closed and ran at U=25 V for 45 minutes. Then, the pile was disassembled, the membrane submerged in Ponceau S solution and gently swayed for 2 minutes. For destaining, ddH2O was substituted for the staining solution, and the membrane was briefly rinsed twice. After drying under ambient conditions, the marker bands were marked with a ballpoint-pen. The membrane was cut into slices each displaying one marker and one sample lane.
Probing of membrane samples was conducted as follows: For classical western blotting, membranes were blocked in PBS containing 5% low fat dried milk powder. They were placed on a rotating shaker at low revolutions for 1 hour. Subsequently, membranes were sealed in plastic bags with blocking solution additionally containing 1 μg/ml anti-PAR-2 antibody (1:400) or 0.5 μg/ml of anti-ETAR antibody (1:500), depending on the respective recombinant cell type used for the sample. […]

succinylated Triticum vulgaris (wheat germ) agglutin [sWGA]
Live cell staining of CHO/PAR-2 (CHO/PAR-2 cells): spot formation | Staining of U2OS/ETAR-GFP (U2OS/ETAR-GFP cells): extensive fluorescence was observed at the cell surface | Live cell staining of CHO/ETAR (CHO/ETAR cells): single spot formation continued fairly slowly | bands that stood out below 35 kDa ([1]; ETAR sample): five | band at the same height as in the western (47 kDa, anti-ETAR) ([1]; biotinylated lectin 5 μg/ml): very faint band | striking bands below 35 kDa ([2]; PAR-2 sample): at least nine | band at the same height as the western band (55 kDa, anti-PAR-2) ([2]; biotinylated lectin 5 μg/ml): one at the same height as the western band; also recorded: intense band | bands detected above 35 kDa ([2]; biotinylated lectin 5 μg/ml, exposure one to five minutes): two
